Consider seven compounds from US20250353891A1 (MEDIMMUNE LIMITED, priority 2022, published 2025).

Where two headings read alike, the source gives them in different places. Starred links: 1 amine or outer side, 2 acyl side, 3 side chain; linkers in the order of their positions; H or OH if unused. Non-standard residues stand in square brackets, D forms with d. Residues, ends and D or L forms follow the SMILES beside them. Groups on a side chain read outwards from the residue. *: point of attachment. C18 diacid = O=C(O)CCCCCCCCCCCCCCCCC(=O)*; γGlu = O=C(O)[C@H](CCC(=O)[*:2])N[*:1]; αMeF = C[C@](N)(Cc1ccccc1)C(=O)O; AEEA = NCCOCCOCC(=O)O; Aib = CC(C)(N)C(=O)O

In general, EC50 refers to the midpoint of the concentration-response curve.

The target in assay [1] is human GLP-1 receptor (hGLP-1R) (Homo sapiens, UniProt P43220). Put plainly: cAMP production (HTRF) in CHO cells expressing hGLP-1R. In kind it is cell-based. On the set-up: expressed in transfected cells. Conditions: for EC50: Table 6, peptides modified at position 17, cAMP in CHO hGLP-1R cells, geometric mean; for % Relative Potency Ratio: Table 6, % GLP-1R activity relative to GLP-1 / % GlucR activity relative to glucagon. The gist of the method:
(§1)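 Potency values represent EC50 from 4-parameter logistic curves of HTRF % Delta F signal. Receptor-expressing CHO cells (hGCGR 2×10^5 cells/mL, hGLP-1R 1×10^5 cells/mL) were exposed for 30 min at room temperature before two-step cAMP detection.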
Background: Cyclic AMP is a second messenger, typically raised through Gs and lowered through Gi signalling.

Assay [2] concerns the target human glucagon receptor (hGCGR) (Homo sapiens, UniProt P47871). Kind of assay: cAMP production (HTRF) in CHO cells expressing hGCGR. In kind it is cell-based. Set-up: expressed in transfected cells. The settings on record: Table 6, peptides modified at position 17, cAMP in CHO hGCGR cells, geometric mean. The essentials:
as §1

human glucagon receptor (hGCGR), sequence (P47871 26-477): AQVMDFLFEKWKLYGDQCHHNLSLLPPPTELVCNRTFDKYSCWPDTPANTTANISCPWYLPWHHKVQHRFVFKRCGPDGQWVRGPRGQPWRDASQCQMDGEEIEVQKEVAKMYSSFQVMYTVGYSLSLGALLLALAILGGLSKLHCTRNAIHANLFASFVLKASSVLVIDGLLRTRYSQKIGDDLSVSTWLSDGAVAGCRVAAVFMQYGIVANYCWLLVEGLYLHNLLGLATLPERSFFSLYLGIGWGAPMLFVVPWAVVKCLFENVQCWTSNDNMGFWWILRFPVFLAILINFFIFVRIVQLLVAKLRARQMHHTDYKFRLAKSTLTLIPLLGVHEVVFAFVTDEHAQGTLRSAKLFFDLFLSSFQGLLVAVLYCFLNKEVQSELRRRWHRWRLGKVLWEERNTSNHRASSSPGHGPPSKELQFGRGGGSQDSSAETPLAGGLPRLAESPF
human GLP-1 receptor (hGLP-1R), sequence (P43220 24-463): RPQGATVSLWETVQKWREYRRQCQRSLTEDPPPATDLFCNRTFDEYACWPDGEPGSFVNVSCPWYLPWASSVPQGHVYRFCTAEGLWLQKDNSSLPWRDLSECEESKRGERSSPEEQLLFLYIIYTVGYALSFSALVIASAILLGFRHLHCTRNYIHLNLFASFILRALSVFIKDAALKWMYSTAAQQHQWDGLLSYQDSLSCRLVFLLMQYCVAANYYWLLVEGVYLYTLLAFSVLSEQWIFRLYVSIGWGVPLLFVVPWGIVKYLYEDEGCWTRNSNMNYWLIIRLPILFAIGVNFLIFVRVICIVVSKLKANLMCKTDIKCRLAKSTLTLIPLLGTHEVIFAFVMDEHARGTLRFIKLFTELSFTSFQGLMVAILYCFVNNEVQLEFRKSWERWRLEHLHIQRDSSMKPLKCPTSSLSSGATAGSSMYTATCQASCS

For `CC(C)C[C@H](NC(=O)[C@H](Cc1c[nH]c2ccccc12)NC(=O)[C@H](CCCNC(=N)N)NC(=O)[C@@H](NC(=O)[C@H](Cc1ccccc1)NC(=O)[C@H](CC(=O)O)NC(=O)[C@H](CCCNC(=N)N)NC(=O)[C@H](C)NC(=O)[C@H](CCCNC(=N)N)NC(=O)[C@H](CCCCNC(=O)COCCOCCNC(=O)COCCOCCNC(=O)CC[C@H](NC(=O)CCCCCCCCCCCCCCCCC(=O)O)C(=O)O)NC(=O)[C@H](CO)NC(=O)[C@H](CC(=O)O)NC(=O)[C@H](CC(C)C)NC(=O)[C@](C)(Cc1ccccc1)NC(=O)[C@H](CCCCN)NC(=O)[C@H](CO)NC(=O)[C@@H](NC(=O)[C@H](CC(=O)O)NC(=O)[C@H](CO)NC(=O)[C@@H](NC(=O)[C@H](Cc1ccccc1)NC(=O)[C@@H](NC(=O)CNC(=O)[C@H](CCC(N)=O)NC(=O)C(C)(C)NC(=O)[C@@H](N)Cc1c[nH]cn1)[C@@H](C)O)[C@@H](C)O)C(C)C)C(C)C)C(=O)N[C@@H](CC(C)C)C(=O)NC(C)(C)C(=O)N[C@H](C(=O)N[C@@H](CCC(=O)O)C(=O)O)[C@@H](C)O` [Peptide 166] (H-H[Aib]QGTFTSDVSK[αMeF]LDSK([AEEA-AEEA-γGlu-C18 diacid])RARDFVRWLL[Aib]TE-OH; N-terminus assumed), the EC50 in assay [1] (read-out: hGLP-1R EC50) came out at 48 pM; in assay [2] (read-out: hGluc-R EC50), 270 pM. Besides, in assay [1], the “% Relative Potency Ratio” value came out at 11.1.
As for `CC(C)C[C@H](NC(=O)[C@H](Cc1c[nH]c2ccccc12)NC(=O)[C@H](C)NC(=O)[C@@H](NC(=O)[C@H](Cc1ccccc1)NC(=O)[C@H](CC(=O)O)NC(=O)[C@H](CCCNC(=N)N)NC(=O)[C@H](C)NC(=O)[C@H](CCCNC(=N)N)NC(=O)[C@H](CCCCNC(=O)COCCOCCNC(=O)COCCOCCNC(=O)CC[C@H](NC(=O)CCCCCCCCCCCCCCCCC(=O)O)C(=O)O)NC(=O)[C@H](CO)NC(=O)[C@H](CC(=O)O)NC(=O)[C@H](CC(C)C)NC(=O)[C@](C)(Cc1ccccc1)NC(=O)[C@H](CCCCN)NC(=O)[C@H](CO)NC(=O)[C@@H](NC(=O)[C@H](CC(=O)O)NC(=O)[C@H](CO)NC(=O)[C@@H](NC(=O)[C@H](Cc1ccccc1)NC(=O)[C@@H](NC(=O)CNC(=O)[C@H](CCC(N)=O)NC(=O)C(C)(C)NC(=O)[C@@H](N)Cc1c[nH]cn1)[C@@H](C)O)[C@@H](C)O)C(C)C)C(C)C)C(=O)N[C@@H](CC(C)C)C(=O)NC(C)(C)C(=O)N[C@H](C(=O)N[C@@H](CCC(=O)O)C(=O)O)[C@@H](C)O` [Peptide 167] (H-H[Aib]QGTFTSDVSK[αMeF]LDSK([AEEA-AEEA-γGlu-C18 diacid])RARDFVAWLL[Aib]TE-OH; N-terminus assumed), the half-maximal effective concentration (EC50) in assay [1] (read-out: hGLP-1R EC50) was 76.8 pM; in assay [2] (read-out: hGluc-R EC50) it was 311 pM. Also, the “% Relative Potency Ratio” value in assay [1] was 8.0.
As for `CC(C)C[C@H](NC(=O)[C@H](C)NC(=O)[C@H](CCCNC(=N)N)NC(=O)[C@H](CCCCNC(=O)COCCOCCNC(=O)COCCOCCNC(=O)CC[C@H](NC(=O)CCCCCCCCCCCCCCCCC(=O)O)C(=O)O)NC(=O)[C@H](CO)NC(=O)[C@H](CC(=O)O)NC(=O)[C@H](CC(C)C)NC(=O)[C@](C)(Cc1ccccc1)NC(=O)[C@H](CCCCN)NC(=O)[C@H](CO)NC(=O)[C@@H](NC(=O)[C@H](CC(=O)O)NC(=O)[C@H](CO)NC(=O)[C@@H](NC(=O)[C@H](Cc1ccccc1)NC(=O)[C@@H](NC(=O)CNC(=O)[C@H](CCC(N)=O)NC(=O)C(C)(C)NC(=O)[C@@H](N)Cc1c[nH]cn1)[C@@H](C)O)[C@@H](C)O)C(C)C)C(=O)N[C@@H](CC(=O)O)C(=O)N[C@@H](Cc1ccccc1)C(=O)N[C@H](C(=O)N[C@@H](CCCNC(=N)N)C(=O)N[C@@H](Cc1c[nH]c2ccccc12)C(=O)N[C@@H](CC(C)C)C(=O)N[C@@H](CC(C)C)C(=O)NC(C)(C)C(=O)N[C@H](C(=O)N[C@@H](CCC(=O)O)C(=O)O)[C@@H](C)O)C(C)C` [Peptide 168] (H-H[Aib]QGTFTSDVSK[αMeF]LDSK([AEEA-AEEA-γGlu-C18 diacid])RALDFVRWLL[Aib]TE-OH; N-terminus assumed), the EC50 is 448 pM in assay [1] (read-out: hGLP-1R EC50) and 886 pM in assay [2] (read-out: hGluc-R EC50). Further, the “% Relative Potency Ratio” value in assay [1] is reported as 3.9.
As to `CC(C)C[C@H](NC(=O)[C@H](CCC(=O)O)NC(=O)[C@H](CC(C)C)NC(=O)[C@](C)(Cc1ccccc1)NC(=O)[C@H](CCCCN)NC(=O)[C@H](CO)NC(=O)[C@@H](NC(=O)[C@H](CC(=O)O)NC(=O)[C@H](CO)NC(=O)[C@@H](NC(=O)[C@H](Cc1ccccc1)NC(=O)[C@@H](NC(=O)CNC(=O)[C@H](CCC(N)=O)NC(=O)C(C)(C)NC(=O)[C@@H](N)Cc1c[nH]cn1)[C@@H](C)O)[C@@H](C)O)C(C)C)C(=O)N[C@@H](CCCCNC(=O)COCCOCCNC(=O)COCCOCCNC(=O)CC[C@H](NC(=O)CCCCCCCCCCCCCCCCC(=O)O)C(=O)O)C(=O)N[C@@H](CCCNC(=N)N)C(=O)N[C@@H](C)C(=O)N[C@@H](CCC(N)=O)C(=O)N[C@@H](CC(=O)O)C(=O)N[C@@H](Cc1ccccc1)C(=O)N[C@H](C(=O)N[C@@H](CCCNC(=N)N)C(=O)N[C@@H](Cc1c[nH]c2ccccc12)C(=O)N[C@@H](CC(C)C)C(=O)N[C@@H](CC(C)C)C(=O)NC(C)(C)C(=O)N[C@H](C(=O)N[C@@H](CCC(=O)O)C(=O)O)[C@@H](C)O)C(C)C` [Peptide 169] (H-H[Aib]QGTFTSDVSK[αMeF]LELK([AEEA-AEEA-γGlu-C18 diacid])RAQDFVRWLL[Aib]TE-OH; N-terminus assumed), the EC50 in assay [1] (hGLP-1R EC50 (pM)) stood at 210 pM; in assay [2] (hGluc-R EC50 (pM)) it was 1400 pM.
As for `CC(C)C[C@H](NC(=O)[C@H](Cc1c[nH]c2ccccc12)NC(=O)[C@H](CCCNC(=N)N)NC(=O)[C@@H](NC(=O)[C@H](Cc1ccccc1)NC(=O)[C@H](CC(=O)O)NC(=O)[C@H](CCC(N)=O)NC(=O)[C@H](C)NC(=O)[C@H](CCCNC(=N)N)NC(=O)[C@H](CCCCNC(=O)COCCOCCNC(=O)COCCOCCNC(=O)CC[C@H](NC(=O)CCCCCCCCCCCCCCCCC(=O)O)C(=O)O)NC(=O)[C@H](CCC(=O)O)NC(=O)[C@H](CC(=O)O)NC(=O)[C@H](CC(C)C)NC(=O)[C@](C)(Cc1ccccc1)NC(=O)[C@H](CCCCN)NC(=O)[C@H](CO)NC(=O)[C@@H](NC(=O)[C@H](CC(=O)O)NC(=O)[C@H](CO)NC(=O)[C@@H](NC(=O)[C@H](Cc1ccccc1)NC(=O)[C@@H](NC(=O)CNC(=O)[C@H](CCC(N)=O)NC(=O)C(C)(C)NC(=O)[C@@H](N)Cc1c[nH]cn1)[C@@H](C)O)[C@@H](C)O)C(C)C)C(C)C)C(=O)N[C@@H](CC(C)C)C(=O)NC(C)(C)C(=O)N[C@H](C(=O)N[C@@H](CCC(=O)O)C(=O)O)[C@@H](C)O` [Peptide 170] (H-H[Aib]QGTFTSDVSK[αMeF]LDEK([AEEA-AEEA-γGlu-C18 diacid])RAQDFVRWLL[Aib]TE-OH; N-terminus assumed), the figures for the EC50 in assay [1] (read-out: hGLP-1R EC50) and in assay [2] (read-out: hGluc-R EC50) were 148 pM and 836 pM, respectively. Further, the “% Relative Potency Ratio” value in assay [1] came to 11.2.
Regarding `CC(C)C[C@H](NC(=O)[C@H](Cc1c[nH]c2ccccc12)NC(=O)[C@H](CCCNC(=N)N)NC(=O)[C@@H](NC(=O)[C@H](Cc1ccccc1)NC(=O)[C@H](CC(=O)O)NC(=O)[C@H](CCC(N)=O)NC(=O)[C@H](C)NC(=O)[C@H](CCCNC(=N)N)NC(=O)[C@H](CCCCNC(=O)COCCOCCNC(=O)COCCOCCNC(=O)CC[C@H](NC(=O)CCCCCCCCCCCCCCCCC(=O)O)C(=O)O)NC(=O)[C@H](CO)NC(=O)[C@H](CC(=O)O)NC(=O)[C@H](CC(C)C)NC(=O)[C@](C)(Cc1ccccc1)NC(=O)[C@H](CCCCN)NC(=O)[C@H](CO)NC(=O)[C@@H](NC(=O)[C@H](CC(=O)O)NC(=O)[C@H](CO)NC(=O)[C@@H](NC(=O)[C@H](Cc1ccccc1)NC(=O)[C@@H](NC(=O)CNC(=O)[C@H](CCC(N)=O)NC(=O)C(C)(C)NC(=O)[C@@H](N)Cc1c[nH]cn1)[C@@H](C)O)[C@@H](C)O)C(C)C)C(C)C)C(=O)N[C@@H](CCC(=O)O)C(=O)NC(C)(C)C(=O)N[C@H](C(=O)N[C@@H](CCC(=O)O)C(=O)O)[C@@H](C)O` [Peptide 171] (H-H[Aib]QGTFTSDVSK[αMeF]LDSK([AEEA-AEEA-γGlu-C18 diacid])RAQDFVRWLE[Aib]TE-OH; N-terminus assumed), the results for the EC50 in assay [1] (read-out: hGLP-1R EC50) and in assay [2] (read-out: hGluc-R EC50) were 107 pM and 376 pM, respectively. Besides, the “% Relative Potency Ratio” value in assay [1] stood at 7.0.
With `CC(C)C[C@H](NC(=O)[C@H](Cc1c[nH]c2ccccc12)NC(=O)[C@H](CCCNC(=N)N)NC(=O)[C@@H](NC(=O)[C@H](Cc1ccccc1)NC(=O)[C@H](CC(=O)O)NC(=O)[C@H](CCC(N)=O)NC(=O)[C@H](C)NC(=O)[C@H](CCCNC(=N)N)NC(=O)[C@H](CCCCNC(=O)COCCOCCNC(=O)COCCOCCNC(=O)CC[C@H](NC(=O)CCCCCCCCCCCCCCCCC(=O)O)C(=O)O)NC(=O)[C@H](CO)NC(=O)[C@H](CCC(=O)O)NC(=O)[C@H](CC(C)C)NC(=O)[C@](C)(Cc1ccccc1)NC(=O)[C@H](CCCCN)NC(=O)[C@H](CO)NC(=O)[C@@H](NC(=O)[C@H](CC(=O)O)NC(=O)[C@H](CO)NC(=O)[C@@H](NC(=O)[C@H](Cc1ccccc1)NC(=O)[C@@H](NC(=O)CNC(=O)[C@H](CCC(N)=O)NC(=O)C(C)(C)NC(=O)[C@@H](N)Cc1c[nH]cn1)[C@@H](C)O)[C@@H](C)O)C(C)C)C(C)C)C(=O)N[C@@H](CC(C)C)C(=O)NC(C)(C)C(=O)N[C@H](C(=O)N[C@@H](CCC(=O)O)C(=O)O)[C@@H](C)O` [Peptide 172] (H-H[Aib]QGTFTSDVSK[αMeF]LESK([AEEA-AEEA-γGlu-C18 diacid])RAQDFVRWLL[Aib]TE-OH; N-terminus assumed), the figures for the concentration giving a half-maximal response (EC50) in assay [1] (read-out: hGLP-1R EC50) and in assay [2] (read-out: hGluc-R EC50) were 213 pM and 1270 pM, respectively. In assay [1], the “% Relative Potency Ratio” value is on record as 11.8.
